Patent US8959984B2, “Proteome-wide quantification of small molecule binding to cellular target proteins” (priority 2007, dated 2015)

Key:
[1] = biological target: NUDT12 (Homo sapiens, UniProt Q9BQG2); test: binding to AX14596 beads (HeLa lysate, SILAC MS); set-up: endogenous in cells; host or cells: HeLa S3
Method: (§1) Differentially SILAC-encoded cell lysates were either incubated with the inhibitor beads displaying immobilized AX14596 or control resin devoid of ligand. In parallel, the supernatant from the first binding step was subjected to a second incubation with the AX14596 resin (FIG. 4). The resulting three elution fractions were combined, resolved by gel electrophoresis, proteolytically digested and the relative abundance of the retained proteins quantified. Proteins showing considerable binding to the control resin were identified as non-specific interactors and therefore not considered further. […] These target-specific ratios were similar in “label switch” experiments (FIGS. 6a and 6c). The binding equilibrium was determined in parallel control SILAC experiments as well as the excess of the immobilized compound over its cellular targets, the excess preferably being a molar excess (FIG. 7 and FIG. 8).
(§2) Cysteine carbamidomethylation was set as a fixed modification and N-acetyl protein and oxidized methionine were allowed as variable modifications. Spectra that were determined to result from heavy labeled peptides in the pre-search detection of SILAC partners by MaxQuant were searched with the fixed modifications Lys^4, Lys^8, Arg^6 and Arg^10, whereas MS/MS spectra for which no SILAC state could be assigned before database searching were searched with Lys^4, Lys^8, Arg^6 and Arg^10 as variable modifications. The mass tolerance was set to 5 ppm for monoisotopic precursor ions and to 0.5 Da for MS/MS peaks. The minimum peptide length was set to 6 amino acids and up to three missed cleavages and three isotopically labeled amino acids were permitted per peptide. The accepted false discovery rate (FDR) was 1% for the proteins and peptides. The cut-off for the posterior error probability (PEP) of peptides was set to 10%. Peptide PEPs were determined by generating Mascot score and peptide-length-dependent histograms for both the forward and the reverse hits and then deriving the probability of a false identification for a given top-scoring peptide using Bayes' theorem. The PEPs of peptides belonging to the same proteins were then multiplied. Each peptide sequence was considered only once with the lowest PEP determined in case of multiple sequencing of the same isotopic pattern or of peptide species with different SILAC, charge or modification states. Proteins were then sorted according to their products of their peptide PEPs and included until a FDR of 1% was reached according to the fraction of reverse proteins contained in the protein list. In addition to the FDR threshold applied for protein identification, proteins were only included when they were identified with at least two peptides (of which one was required to be unique for the protein) and quantified if at least on quantifiable SILAC pair was associated with them. Outliers were not removed as protein ratios were calculated as the median instead of the average of all peptide ratios. For peptides shared among different identified proteins, SILAC ratios were only considered for the ratio of the protein identified with the highest number of unique peptides. Protein ratios for the different in vitro association experiments were corrected for the initial SILAC pooling ratio, which was determined from the median of protein ratios in pooled SILAC-encoded cell extracts.

[2] = biological target: RPL27A (Homo sapiens, UniProt P46776); test: binding to AX14596 beads (HeLa lysate, SILAC MS); set-up: endogenous in cells; host or cells: HeLa S3
Method: as §1, §2

[3] = biological target: MNK1 (MKNK1) (Homo sapiens, UniProt Q9BUB5); test: binding to AX14596 beads (HeLa lysate, SILAC MS); set-up: endogenous in cells; host or cells: HeLa S3
Chain of MNK1 (MKNK1) (Q9BUB5 whole entry): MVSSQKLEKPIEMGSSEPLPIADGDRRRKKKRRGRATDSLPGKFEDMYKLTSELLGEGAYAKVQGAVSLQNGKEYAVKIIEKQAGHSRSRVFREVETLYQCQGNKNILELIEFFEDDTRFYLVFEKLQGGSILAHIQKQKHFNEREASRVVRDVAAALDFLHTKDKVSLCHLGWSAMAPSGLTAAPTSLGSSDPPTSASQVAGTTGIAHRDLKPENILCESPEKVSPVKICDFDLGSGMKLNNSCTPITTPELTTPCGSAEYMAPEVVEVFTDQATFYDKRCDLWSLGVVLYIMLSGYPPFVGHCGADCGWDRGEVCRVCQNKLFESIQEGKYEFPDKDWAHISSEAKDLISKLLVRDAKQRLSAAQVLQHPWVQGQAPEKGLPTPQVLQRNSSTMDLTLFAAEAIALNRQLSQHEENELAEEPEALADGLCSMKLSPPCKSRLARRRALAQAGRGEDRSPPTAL
Method: as §1, §2

[4] = biological target: RPL7 (Homo sapiens, UniProt P18124); test: binding to AX14596 beads (HeLa lysate, SILAC MS); set-up: endogenous in cells; host or cells: HeLa S3
Method: as §1, §2

[5] = biological target: SPR (Homo sapiens, UniProt P35270); test: binding to AX14596 beads (HeLa lysate, SILAC MS); set-up: endogenous in cells; host or cells: HeLa S3
Chain of SPR (P35270 whole entry): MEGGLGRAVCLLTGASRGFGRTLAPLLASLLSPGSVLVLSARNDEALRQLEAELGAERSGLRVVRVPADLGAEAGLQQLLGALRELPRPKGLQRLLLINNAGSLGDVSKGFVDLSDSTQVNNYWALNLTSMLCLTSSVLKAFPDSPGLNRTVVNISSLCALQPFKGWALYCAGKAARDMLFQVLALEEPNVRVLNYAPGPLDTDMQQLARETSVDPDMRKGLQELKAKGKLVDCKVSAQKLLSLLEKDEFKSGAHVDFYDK
Method: as §1, §2

[6] = biological target: CaMK2d (CAMK2D) (Homo sapiens, UniProt Q13557); test: binding to AX14596 beads (HeLa lysate, SILAC MS); set-up: endogenous in cells; host or cells: HeLa S3
Chain of CaMK2d (CAMK2D) (Q13557 whole entry): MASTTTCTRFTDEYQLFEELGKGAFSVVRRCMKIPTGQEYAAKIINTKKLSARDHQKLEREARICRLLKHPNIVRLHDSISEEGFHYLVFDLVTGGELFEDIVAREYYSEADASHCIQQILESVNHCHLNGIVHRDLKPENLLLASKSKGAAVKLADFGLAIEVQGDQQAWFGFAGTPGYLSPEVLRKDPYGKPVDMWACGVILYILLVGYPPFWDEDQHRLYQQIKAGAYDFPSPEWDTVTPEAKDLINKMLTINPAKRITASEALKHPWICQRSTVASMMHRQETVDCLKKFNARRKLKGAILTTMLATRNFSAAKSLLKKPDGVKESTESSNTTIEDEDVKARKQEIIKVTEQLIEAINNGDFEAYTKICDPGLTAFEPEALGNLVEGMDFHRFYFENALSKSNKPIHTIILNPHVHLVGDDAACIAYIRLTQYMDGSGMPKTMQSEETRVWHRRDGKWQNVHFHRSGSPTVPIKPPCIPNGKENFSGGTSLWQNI
Method: as §1, §2

[7] = biological target: SNRPG (Homo sapiens, UniProt P62308); test: binding to AX14596 beads (HeLa lysate, SILAC MS); set-up: endogenous in cells; host or cells: HeLa S3
Chain of SNRPG (P62306 whole entry): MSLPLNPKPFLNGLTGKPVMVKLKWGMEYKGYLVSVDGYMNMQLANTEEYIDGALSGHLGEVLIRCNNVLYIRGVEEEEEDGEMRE
Chain of SNRPG (P62304 whole entry, further chain): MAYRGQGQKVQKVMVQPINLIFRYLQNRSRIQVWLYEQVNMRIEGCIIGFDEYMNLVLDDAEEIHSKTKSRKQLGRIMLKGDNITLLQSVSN
Chain of SNRPG (P62308 whole entry): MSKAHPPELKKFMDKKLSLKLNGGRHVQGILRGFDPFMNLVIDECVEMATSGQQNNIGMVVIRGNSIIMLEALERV
Method: as §1, §2

[8] = biological target: RPL7A (Homo sapiens, UniProt P62424); test: binding to AX14596 beads (HeLa lysate, SILAC MS); set-up: endogenous in cells; host or cells: HeLa S3
Method: as §1, §2

[9] = biological target: NAMPT (Homo sapiens, UniProt P43490); test: binding to AX14596 beads (HeLa lysate, SILAC MS); set-up: endogenous in cells; host or cells: HeLa S3
Chain of NAMPT (P43490 whole entry): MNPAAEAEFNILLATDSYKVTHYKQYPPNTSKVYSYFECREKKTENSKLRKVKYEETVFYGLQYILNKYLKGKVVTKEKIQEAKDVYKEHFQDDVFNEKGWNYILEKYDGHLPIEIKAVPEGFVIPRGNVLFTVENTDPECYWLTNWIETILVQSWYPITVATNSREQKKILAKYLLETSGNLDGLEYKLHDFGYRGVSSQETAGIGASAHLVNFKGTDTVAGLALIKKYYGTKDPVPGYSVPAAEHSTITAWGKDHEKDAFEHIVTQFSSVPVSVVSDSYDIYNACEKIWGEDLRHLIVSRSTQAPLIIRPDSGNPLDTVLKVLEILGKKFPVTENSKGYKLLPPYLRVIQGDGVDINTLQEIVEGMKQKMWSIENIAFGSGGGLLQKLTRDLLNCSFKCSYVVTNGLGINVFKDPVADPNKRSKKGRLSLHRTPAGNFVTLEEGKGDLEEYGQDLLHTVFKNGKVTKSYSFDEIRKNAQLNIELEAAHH
Method: as §1, §2

[10] = biological target: CK1e (CSNK1E) (Homo sapiens, UniProt P49674); test: binding to AX14596 beads (HeLa lysate, SILAC MS); set-up: endogenous in cells; host or cells: HeLa S3
Chain of CK1e (CSNK1E) (P49674 whole entry): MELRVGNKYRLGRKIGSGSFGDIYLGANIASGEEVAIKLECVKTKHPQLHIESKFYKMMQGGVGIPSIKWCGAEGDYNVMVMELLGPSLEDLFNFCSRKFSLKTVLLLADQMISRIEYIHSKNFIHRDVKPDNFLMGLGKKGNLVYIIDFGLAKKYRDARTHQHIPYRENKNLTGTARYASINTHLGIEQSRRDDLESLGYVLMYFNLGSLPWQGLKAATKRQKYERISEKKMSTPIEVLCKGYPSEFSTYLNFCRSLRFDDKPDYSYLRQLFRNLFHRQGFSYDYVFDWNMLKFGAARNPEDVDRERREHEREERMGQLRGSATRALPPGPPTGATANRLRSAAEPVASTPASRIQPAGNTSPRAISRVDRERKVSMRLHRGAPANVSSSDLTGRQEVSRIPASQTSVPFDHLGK
Method: as §1, §2

[11] = biological target: T1, DYRK1A (IPI00219250) (Homo sapiens, UniProt Q13627); test: binding to VI16742 beads (HeLa lysate, SILAC MS)
T1 construct: endogenous in cells; host or cells: HeLa S3 cell lysate

Chain of NUDT12 (Q9BQG2 whole entry): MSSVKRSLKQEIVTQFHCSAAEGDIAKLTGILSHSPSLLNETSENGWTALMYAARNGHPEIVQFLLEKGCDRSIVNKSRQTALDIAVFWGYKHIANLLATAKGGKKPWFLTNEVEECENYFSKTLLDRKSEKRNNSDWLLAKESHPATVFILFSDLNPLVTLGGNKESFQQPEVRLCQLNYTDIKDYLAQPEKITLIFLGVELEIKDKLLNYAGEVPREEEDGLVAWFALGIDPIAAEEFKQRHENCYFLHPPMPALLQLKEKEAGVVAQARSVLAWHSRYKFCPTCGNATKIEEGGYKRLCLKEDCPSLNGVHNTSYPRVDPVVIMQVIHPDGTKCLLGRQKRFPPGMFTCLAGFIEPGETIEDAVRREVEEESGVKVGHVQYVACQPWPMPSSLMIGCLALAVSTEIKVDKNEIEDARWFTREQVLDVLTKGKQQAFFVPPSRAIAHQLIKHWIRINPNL

Which Ki [1] does the source give for `COc1cc2ncnc(Nc3ccc(F)c(Cl)c3)c2cc1OCCCN` [AX14596] here?
The Ki was 16.1 µM.

What about the “r (3 mg/1 mg lysate)” value [1] of the same compound?
Its value is 2.24.

What about the “r (5 h/2.5 h inc. time)” value [1] of the same compound?
The value was 0.91.

And the “rAVERAGE (2. inc/1. inc)” value [1]?
The value was 0.14.

And the “rAVERAGE (control/1. inc)” value [1]?
The value was 0.04.

What about the Ki [2] of the same compound?
The Ki was 2930 µM.

And the “r (3 mg/1 mg lysate)” value [2]?
The value was 1.75.

What about the “r (5 h/2.5 h inc. time)” value [2] of the same compound?
The value was 1.12.

What about the “rAVERAGE (2. inc/1. inc)” value [2] of the same compound?
Its value is 0.97.

And the “rAVERAGE (control/1. inc)” value [2]?
Its value is 0.06.

What about the Ki [3] of the same compound?
Its Ki is 922 µM.

And the “r (3 mg/1 mg lysate)” value [3]?
The value was 2.94.

And the “r (5 h/2.5 h inc. time)” value [3]?
Its value is 1.05.

And the “rAVERAGE (2. inc/1. inc)” value [3]?
The value was 0.90.

What about the “rAVERAGE (control/1. inc)” value [3] of the same compound?
Its value is 0.04.

What about the Ki [4] of the same compound?
The Ki was 2310 µM.

What about the “r (3 mg/1 mg lysate)” value [4] of the same compound?
Its value is 1.82.

And the “rAVERAGE (2. inc/1. inc)” value [4]?
Its value is 0.96.

What about the “rAVERAGE (control/1. inc)” value [4] of the same compound?
The value was 0.19.

What about the Ki [5] of the same compound?
Its Ki is 1860 µM.

What about the “r (3 mg/1 mg lysate)” value [5] of the same compound?
Its value is 2.91.

And the “r (5 h/2.5 h inc. time)” value [5]?
The value was 2.43.

What about the “rAVERAGE (2. inc/1. inc)” value [5] of the same compound?
The value was 0.95.

What about the “rAVERAGE (control/1. inc)” value [5] of the same compound?
Its value is 0.02.

What about the Ki [6] of the same compound?
The Ki was 87.2 µM.

And the “r (3 mg/1 mg lysate)” value [6]?
The value was 2.39.

What about the “r (5 h/2.5 h inc. time)” value [6] of the same compound?
Its value is 1.13.

What about the “rAVERAGE (2. inc/1. inc)” value [6] of the same compound?
The value was 0.47.

What about the “rAVERAGE (control/1. inc)” value [6] of the same compound?
The value was 0.07.

And the Ki [7]?
The Ki was 87.6 µM.

What about the “r (3 mg/1 mg lysate)” value [7] of the same compound?
Its value is 2.54.

And the “rAVERAGE (2. inc/1. inc)” value [7]?
The value was 0.47.

And the “rAVERAGE (control/1. inc)” value [7]?
The value was 0.16.

And the Ki [8]?
Its Ki is 2100 µM.

And the “r (3 mg/1 mg lysate)” value [8]?
Its value is 5.23.

What about the “rAVERAGE (2. inc/1. inc)” value [8] of the same compound?
The value was 0.95.

And the “rAVERAGE (control/1. inc)” value [8]?
Its value is 0.17.

What about the Ki [9] of the same compound?
The Ki was 41.2 µM.

And the “r (3 mg/1 mg lysate)” value [9]?
Its value is 7.48.

What about the “r (5 h/2.5 h inc. time)” value [9] of the same compound?
The value was 0.39.

What about the “rAVERAGE (2. inc/1. inc)” value [9] of the same compound?
Its value is 0.29.

And the “rAVERAGE (control/1. inc)” value [9]?
Its value is 0.04.

What about the Ki [10] of the same compound?
The Ki was 4080 µM.

And the “r (3 mg/1 mg lysate)” value [10]?
The value was 2.87.

What about the “r (5 h/2.5 h inc. time)” value [10] of the same compound?
Its value is 1.23.

What about the “rAVERAGE (2. inc/1. inc)” value [10] of the same compound?
The value was 0.98.

And the “rAVERAGE (control/1. inc)” value [10]?
The value was 0.09.

Which results are given for `CC(C)n1c(=O)ccc2cnc(Nc3ccc(OCCN)cc3)nc21` [V16742]?
rAVERAGE (CTRL/1 INC) ([11]; control beads vs first incubation): 0.08; Ki ([11]; immobilized VI16742): 83.8 µM; rAVERAGE (2 INC/1 INC) ([11]; second vs first incubation): 0.62
